Reference: patent US20070154990A1, “Assays for identifying inhibitors of fatty acid amide hydrolase” (priority 2005, published 2007)
Substitutions are numbered along the chain they refer to. Where two headings read alike, the source gives them in different places. Values belong to the molecule of their own block, whether it stands above or below them.

What was measured:
human FAAH [1] = target: T1, human FAAH (Homo sapiens, UniProt O00519); experiment: FAAH SPA binding assay (displacement of [3H]-MAEA from FAAH-containing microsomes); details: for IC50: 3 hours room temperature
T1 construct: His6; made in house; host or cells: CHO cells, stably transfected; microsomal fraction used
T1 sequence (O00519 1-579): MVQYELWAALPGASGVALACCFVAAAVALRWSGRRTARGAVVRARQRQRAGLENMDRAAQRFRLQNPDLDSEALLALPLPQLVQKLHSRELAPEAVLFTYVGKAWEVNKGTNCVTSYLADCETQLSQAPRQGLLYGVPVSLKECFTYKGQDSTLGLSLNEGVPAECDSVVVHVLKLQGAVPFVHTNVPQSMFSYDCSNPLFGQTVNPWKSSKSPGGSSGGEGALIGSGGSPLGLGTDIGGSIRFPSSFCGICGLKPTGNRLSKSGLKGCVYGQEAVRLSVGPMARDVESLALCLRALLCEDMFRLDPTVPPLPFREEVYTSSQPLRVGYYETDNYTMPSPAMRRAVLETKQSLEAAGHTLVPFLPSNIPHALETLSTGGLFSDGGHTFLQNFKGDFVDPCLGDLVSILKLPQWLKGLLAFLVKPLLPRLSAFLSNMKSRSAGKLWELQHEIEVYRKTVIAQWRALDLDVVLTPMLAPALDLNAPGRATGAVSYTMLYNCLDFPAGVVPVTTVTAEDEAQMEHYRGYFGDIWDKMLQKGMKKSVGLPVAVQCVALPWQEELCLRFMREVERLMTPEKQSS
Procedure: FIG. 3. One embodiment of a FAAH SPA assay. […] The radioactivity was counted on a TopCount™ for one minute per sample. Each point shown is the mean±SD of triplicates from at least two independent experiments.
FIG. 7. Inhibition of the binding of [^3H]-MAEA to FAAH-containing microsomes by FAAH inhibitors in SPA. The assay was carried out by incubating 5 μg of FAAH microsomes with 100 nM [^3H]-MAEA and 0.5 mg of WGA beads in 50 mM HEPES, 1 mM EDTA, pH 7.4, 0.1% BSA, with inhibitors in a 200 μL total reaction volume, at room temperature for 3 hours. The final concentration of DMSO in the assay was 0.5%. IC50 values were calculated by fitting the curve to a non-linear regression equation. Each point is the mean±SD of triplicate data from at least two independent experiments.
The SPA assay consisted of 100 nM [^3H]-MAEA (60 Ci/mmol), […] FAAH microsomes and 0.5 mg PVT-WGA beads in buffer (50 mM HEPES, pH 7.4, 1 mM EDTA and 0.1% BSA). The assays were performed in 96 well plates with a final volume of 200 μL. Components were added to the assay plates, which were agitated on a plate shaker for 3-4 hours at room temperature. The assays were then counted on a TopCount NXT (PerkinElmer, Boston, Mass.) for one minute per well. Results presented are the mean±S. E. of triplicate measurements from at least two independent experiments. The IC50 values were calculated using the GraphPad Prism 3.02 program, based on a sigmoidal dose-response equation. The screening window coefficient (Z′-factor) was calculated according to the following equation as previous described (See Zhang, J. H., T. D. Chung, and K. R. Oldenburg, A simple statistical parameter for use in evaluation and validation of high throughput screening assays, J Biomol Screen, 1999, 4: 67-73): Z=1−(3σc++3σc−)/|μc+−μc−| where, σc+ and σc− are standard deviations of positive and negative controls and μc+ and μc− are means of positive and negative controls respectively.
Assays were performed by incubating 0.5 mg of PVT-WGA beads, 100 nM [3H]-MAEA, and 5 μg of FAAH-containing microsomes. Assays were incubated in the wells of 96-well plates.

human FAAH [2] = target: T1, human FAAH; experiment: [3H]-anandamide (AEA) hydrolysis by FAAH microsomes; format: biochemical
Procedure: 0.5 μg of human FAAH microsomes were incubated with 1 μM [^3H]-AEA substrate and indicated concentrations of MAEA in assay buffer at room temperature for 2 hours. Released [^3H]-ethanolamine was extracted by chloroform/methanol and counted.
Panel (B) Effect of MAEA on the kinetics of AEA hydrolysis by FAAH-containing microsomes. 0.5 μg of the microsomes comprising FAAH were incubated with the indicated [^3H]-AEA concentrations for 30 minutes with or without 10 μM of MAEA. Released [^3H]-ethanolamine was measured in a scintillation counter.
Microsomes (0.5 μg/assay) prepared from CHO cells expressing human FAAH, were incubated with the indicated concentrations of anandamide (ethanolamine 1-[^3H]) for 30 min at 25° C. in 50 mM HEPES, pH 7.4, 1 mM EDTA and 0.1% BSA. The reaction was terminated by the addition of 2 volumes of chloroform/methanol (1:1, v/v). The samples were vortexed and centrifuged at 1000 g for 3 minutes. The aqueous phase, containing [^3H]-ethanolamine, was collected and measured by liquid scintillation counting. Results are presented as the mean±S.E. of triplicate measurements from at least two independent experiments. The observed rate constants (apparent Km) were calculated using GraphPad Prism 3.02, based on a Michaelis-Menten (one site binding hyperbola) equation Y=BmaxX/[Km+X].
The AEA hydrolysis assays were performed according to the protocols described in Example 1. 0.5 μg of FAAH-containing microsomes per assay were incubated with 8 different concentrations (in a range from 1 μM to 10 μM) of compound in the presence of 1 μM […] in 50 mM HEPES, pH 7.5, 1 mM EDTA, 0.1% BSA at room temperature for 2 hours. ^3H-ethanolamine released from AEA hydrolysis was measured by liquid scintillation counting. Results were analyzed using a sigmoidal dose-response equation by GraphPad Prism 3.02. Numerical results are the mean of triplicate measurements from at least two independent experiments.

FAAH microsomes = target: T2, FAAH microsomes (Homo sapiens, UniProt O00519); experiment: Hydrolysis of [3H]-MAEA by FAAH microsomes; format: biochemical; details: 5 μg FAAH microsomes over 5 hours
T2 construct: His6; made in house; host or cells: CHO cells, stably transfected; microsomal fraction used
T2 sequence (O00519 1-579): T1 sequence (O00519 1-579)
Excerpt: R(+)-methanandamide (R-(+)-arachidonyl-1-′-hydroxy-2′-propylamide, MAEA) is an anandamide analog with a methyl group at the 1′-position of the ethanolamido head group. […] The effects of MAEA on FAAH-catalyzed anandamide hydrolysis was also examined using FAAH-containing microsomes.

[3] = SPA binding of [3H]-MAEA to microsomes from CHO cells containing only vector; set-up: species or system Chinese hamster; details: 5 μg microsomes from cells containing only vector
Procedure: (§1) FIG. 4. […] The relative activity of FAAH-containing microsomes or those prepared from cells expressing FAAH-S241A or vector control was measured by increasing the microsomal protein concentration ranging from 0-10 μg/assay. 100 nM of [^3H]-MAEA and 0.5 mg of WGA SPA beads were incubated with indicated concentrations of microsomes at 25° C. for 3 hours. Radioactivity was measured in a TopCount™. The SPA signal (CPM) was plotted against amount of microsomal protein in the assay. Each point is the mean±SD of triplicate data from at least two independent experiments.
(§2) Cells were collected by centrifugation at 2000 g for 10 minutes at 4° C. in a Sorvall high-speed centrifuge. The cell pellet was then washed 3 times with PBS and resuspended in buffer containing 50 mM HEPES, pH 7.4, 1 mM EDTA, 1 μM pepstatin, 100 μM leupeptin, 0.1 mg/mL aprotinin. The cells were sonicated 5 times for 10 seconds at 15-second intervals and the cell lysate was further centrifuged at 12000 g for 20 minutes at 4° C. The supernatant was centrifuged at 100,000 g for 30 minutes in a SW28 rotor in a Beckman Optima LE-80K centrifuge. The pellet obtained was the microsomal fraction, which was resuspended in ice-cold buffer. Protein concentration was measured by the BCA method (Pierce) and the microsomal suspension adjusted to 1 mg/mL and stored in aliquots at −80° C. until use. […]

inactive FAAH-S241A = target: T3, inactive FAAH-S241A (Homo sapiens, UniProt O00519, S241A); experiment: SPA binding of [3H]-MAEA to microsomes with inactive FAAH-S241A mutant; details: 5 μg microsomes containing inactive FAAH-S241A
T3 construct: His6; made in house; host or cells: CHO cells, stably transfected; microsomal fraction used
T3 sequence (O00519 1-579 S241A): T1 sequence (O00519 1-579) with S241A
Procedure: as §1, §2

[4] = 5 μg FAAH microsomes, 100 nM [3H]-MAEA, 0.5 mg WGA beads
[5] = 0.5 μg FAAH-containing microsomes, 1 μM radiolabelled substrate, room temperature 2 hours, read-out: AEA hydrolysis (IC50)

- IC50 (human FAAH [1]; [4]): 87 nM
- IC50 (human FAAH [2]; [5]): 10.1 nM
Molecule: Arachidonoyl trifluoromethyl ketone [ATFK]

Molecule: CCCCC/C=C\C/C=C\C/C=C\C/C=C\CCCC(=O)NCCO [AEA, arachidonyl ethanolamide]
- Km (human FAAH [2]; FAAH-containing microsomes, without MAEA, read-out: apparent Km for AEA (no inhibitor)): 9.1 µM

Molecule: CCCCC/C=C\C/C=C\C/C=C\C/C=C\CCCC(=O)N[C@H](C)CO [MAEA, R-(+)-arachidonyl-1-′-hydroxy-2′-propylamide]
- Kd (human FAAH [1]; 2 μg FAAH microsomes, 0.5 mg PVT-WGA beads, estimated, read-out: Kd of specific binding to FAAH microsomes): 25000 nM
- specific binding of [3H]-MAEA to microsomes (human FAAH [1]; 5 μg microsomes containing FAAH): 90%
- total [3H]-MAEA bound to FAAH microsomes (human FAAH [1]; 5 μg microsomes, 100 nM [3H]-MAEA, 0.5 mg WGA beads): ~92%
- [3H]-MAEA degraded (FAAH microsomes): less than 1.5%
- specific binding of [3H]-MAEA to microsomes [3]: 6.1%
- IC50 (human FAAH [2]; 0.5 μg human FAAH microsomes, 1 μM [3H]-AEA, 2 hours, read-out: IC50 of inhibition of FAAH-catalyzed anandamide hydrolysis): 7400 nM
- mode of inhibition (Lineweaver-Burk plot) (human FAAH [2]; 10 μM MAEA): competitive FAAH inhibitor
- Vmax of AEA hydrolysis in the presence of the compound (human FAAH [2]; MAEA at 10 μM, 30 minutes): 25.82 nmol/min/mg protein
- Km (human FAAH [2]; MAEA at 10 μM, 30 minutes, read-out: apparent Km for AEA in the presence of the compound): 62.3 µM
- specific binding of [3H]-MAEA to microsomes (inactive FAAH-S241A): 6.5%

- IC50 (human FAAH [1]; [4]): 3.1 nM
- IC50 (human FAAH [2]; [5]): 2.3 nM
Molecule: CCCCCCCCCCCC(=O)c1nc2ncccc2o1 [CAY-10400]

Molecule: NC(=O)c1cccc(-c2cccc(OC(=O)NC3CCCCC3)c2)c1 [URB-597]
- SPA counts in the presence of inhibitor (human FAAH [1]; URB-597 1 μM, 5 μg FAAH microsomes, 100 nM [3H]-MAEA, 160 cpm without inhibitor): 1932 cpm
- effect on the interaction of [3H]-MAEA and the WGA beads (human FAAH [1]; same concentration of URB-597 (1 μM), no microsomes): no effect
